In ChEMBL document CHEMBL1201862, “PubChem BioAssay data set” (2004):
Activity calls are given as the source filed them.

Legend:
Caspase-3 = target: T1, Caspase-3 (Homo sapiens, UniProt P42574); experiment: Dose-response confirmation of uHTS inhibitor hits of Sentrin-Specific Protease 8 in a Caspase-3 Fluorescence assay.; format: functional
T1 sequence (P42574 whole entry): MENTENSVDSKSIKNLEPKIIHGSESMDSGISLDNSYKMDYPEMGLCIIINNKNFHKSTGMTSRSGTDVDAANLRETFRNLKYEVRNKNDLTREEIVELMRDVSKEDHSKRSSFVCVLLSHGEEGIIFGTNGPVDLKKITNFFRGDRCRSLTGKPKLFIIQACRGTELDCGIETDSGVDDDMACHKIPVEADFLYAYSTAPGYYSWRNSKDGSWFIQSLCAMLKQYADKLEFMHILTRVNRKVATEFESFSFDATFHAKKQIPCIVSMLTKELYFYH

[1] = target: T2, Sentrin-specific protease 8 (Homo sapiens, UniProt Q96LD8); format: functional
T2 sequence (Q96LD8 whole entry): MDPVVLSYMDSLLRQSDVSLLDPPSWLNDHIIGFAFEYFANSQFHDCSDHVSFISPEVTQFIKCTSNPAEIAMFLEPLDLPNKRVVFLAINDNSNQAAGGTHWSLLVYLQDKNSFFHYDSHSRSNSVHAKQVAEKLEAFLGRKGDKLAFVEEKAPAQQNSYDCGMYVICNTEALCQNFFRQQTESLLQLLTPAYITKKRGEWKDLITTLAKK

Caspase-6 = target: T3, Caspase-6 (Homo sapiens, UniProt P55212); experiment: human caspase-6 inhibitors, dose response, biochemical, VEID-R110 fluorescence, cherry-pick (AID 720632)
T3 sequence (P55212 whole entry): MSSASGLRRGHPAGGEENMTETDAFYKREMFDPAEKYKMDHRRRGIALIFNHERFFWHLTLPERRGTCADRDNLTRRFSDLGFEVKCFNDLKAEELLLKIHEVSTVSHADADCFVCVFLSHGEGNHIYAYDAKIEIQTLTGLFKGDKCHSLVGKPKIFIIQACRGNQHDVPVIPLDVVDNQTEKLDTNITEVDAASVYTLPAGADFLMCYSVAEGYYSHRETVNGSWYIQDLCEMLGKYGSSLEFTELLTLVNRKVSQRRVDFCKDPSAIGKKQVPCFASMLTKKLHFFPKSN

[2] = target: T2, Sentrin-specific protease 8; format: functional; remark: listed apart in the source
Plasmodium falciparum = experiment: growth inhibition of P. falciparum 3D7, dose response, 3D7 strain, red blood cells, SYBR Green, cherry-picked (AID 652047); format: functional
[3] = target: 5-hydroxytryptamine receptor 2A (Mus musculus, UniProt P35363); format: functional, cell-based;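 further: CHO-K1 cells with tagged receptor and beta-arrestin; agonist potency measured as compound-induced activation of the receptor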
Mu-type opioid receptor = Mu-type opioid receptor (Homo sapiens, UniProt P35372); format: functional, cell-based;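 further: U2OS cells with beta-arrestin recruitment to OPRM1 by beta-gal complementation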
[4] = cytotoxicity in OVCAR8 ovarian cancer cells, dose response, PAX8 project, cell-based, plate reader, dry powder samples (AID 743197); format: functional; settings: OVCAR-8
Paired box protein Pax-8 = Paired box protein Pax-8 (Homo sapiens, UniProt Q06710); experiment: inhibitors of PAX8-driven TPO luciferase reporter, dose response, RMG-I cells, cherry-pick (AID 687027); format: functional, cell-based;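 further: luciferase reporter driven by Pax8 target thyroperoxidase promoter measured by SteadyGlo luminescence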
[5] = NIH:OVCAR-3 ovarian cancer cell cytotoxicity, dose response, PAX8 inhibitor project, plate reader, dry powder samples (AID 743044); format: functional, cell-based
[6] = lymphoblastoid cell cytotoxicity, dose response, cytotoxicity control, plate reader, dry powder, set 2 (AID 624367); format: functional
[7] = IGROV1 ovarian cancer cell cytotoxicity, dose response, PAX8 inhibitor project, plate reader, dry powder samples (AID 743043); format: functional, cell-based; settings: IGROV-1
[8] = inhibitors of CMV-promoter luciferase reporter, dose response, counter-screen for Pax8 inhibitor project, cell-based, HEK293, luminescence, dry powder (AID 743020); format: functional
[9] = HepG2 cell cytotoxicity, dose response, cytotoxicity control, cherry-picks, set 5 (AID 1053118); format: functional, cell-based
Protein Wnt-3a = Protein Wnt-3a (Mus musculus, UniProt P27467); experiment: SAR analysis of small molecule antagonists of Gli-SUFU in a Wnt3a luminescent reporter assay.; format: functional
cells = format: functional, cell-based
[10] = Counterscreen for activators of the function of SWI/SNF related, matrix associated, actin dependent regulator of chromatin, subfamily a, member 2 (SMARCA2, BRM): Luminescence-based cell-based high throughput dose response assay to identify non-selective compounds using the VP16 reporter assay.; format: functional
[11] = target: T4, Nuclear receptor subfamily 0 group B member 1 (Homo sapiens, UniProt P51843); format: functional, cell-based;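 further: HEK293T cells transfected with SF-1 and DAX-1 plus StAR promoter luciferase reporter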
T4 sequence (P51843 whole entry): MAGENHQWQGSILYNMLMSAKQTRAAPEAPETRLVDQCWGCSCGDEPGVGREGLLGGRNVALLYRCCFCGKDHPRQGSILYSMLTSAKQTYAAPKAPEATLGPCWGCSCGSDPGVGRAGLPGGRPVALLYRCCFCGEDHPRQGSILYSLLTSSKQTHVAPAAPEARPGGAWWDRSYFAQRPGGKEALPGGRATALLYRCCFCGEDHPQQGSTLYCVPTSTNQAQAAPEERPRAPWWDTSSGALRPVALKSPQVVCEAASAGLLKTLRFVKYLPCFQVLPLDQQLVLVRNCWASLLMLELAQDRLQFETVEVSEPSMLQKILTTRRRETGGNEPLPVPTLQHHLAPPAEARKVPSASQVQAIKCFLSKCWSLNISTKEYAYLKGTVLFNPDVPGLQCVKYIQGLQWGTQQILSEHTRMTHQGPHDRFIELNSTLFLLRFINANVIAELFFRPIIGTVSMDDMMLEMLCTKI

P388/ADR = experiment: cells; format: functional; settings: Mus musculus
[12] = target: SWI/SNF-related matrix-associated actin-dependent regulator of chromatin subfamily A member 2 (Homo sapiens, UniProt P51531); experiment: Luminescence-based cell-based high throughput dose response assay to identify activators of the function of SWI/SNF related, matrix associated, actin dependent regulator of chromatin, subfamily a, member 2 (SMARCA2, BRM).; format: functional
SN12K1 = experiment: cells; format: functional; settings: Homo sapiens
P388 = experiment: cells; format: functional; settings: Mus musculus
Beta-lactamase [13] = target: Beta-lactamase (Pseudomonas aeruginosa, UniProt Q79MP6);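 further: biochemical dose-response test of metallo-beta-lactamase enzyme inhibition, read out by epi-absorbance; purified recombinant IMP-1 metallo-beta-lactamase with nitrocefin as substrate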
HEK293 [14] = experiment: HEK cell cytotoxicity by LDH release, dose response, cytotoxicity control for IDE activator project, fluorescence, HEK cells (AID 588440); format: functional, cell-based; settings: Homo sapiens;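 further: cytotoxicity by LDH release measuring loss of membrane integrity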
Beta-lactamase [15] = target: Beta-lactamase (Salmonella choleraesuis (strain SC-B67), UniProt Q5J463)
HEK293 [16] = experiment: optical interference in Abeta FP readout, dose response, artefact control for IDE activator project, biochemical, fluorescence polarization (AID 588442); format: functional, cell-based; settings: Homo sapiens
Insulin-degrading enzyme [17] = target: T5, Insulin-degrading enzyme (Homo sapiens, UniProt P14735); experiment: activators of endogenous IDE in HEK cells, dose response, cell-based, fluorescence polarization (AID 588439); format: functional
T5 sequence (P14735 whole entry): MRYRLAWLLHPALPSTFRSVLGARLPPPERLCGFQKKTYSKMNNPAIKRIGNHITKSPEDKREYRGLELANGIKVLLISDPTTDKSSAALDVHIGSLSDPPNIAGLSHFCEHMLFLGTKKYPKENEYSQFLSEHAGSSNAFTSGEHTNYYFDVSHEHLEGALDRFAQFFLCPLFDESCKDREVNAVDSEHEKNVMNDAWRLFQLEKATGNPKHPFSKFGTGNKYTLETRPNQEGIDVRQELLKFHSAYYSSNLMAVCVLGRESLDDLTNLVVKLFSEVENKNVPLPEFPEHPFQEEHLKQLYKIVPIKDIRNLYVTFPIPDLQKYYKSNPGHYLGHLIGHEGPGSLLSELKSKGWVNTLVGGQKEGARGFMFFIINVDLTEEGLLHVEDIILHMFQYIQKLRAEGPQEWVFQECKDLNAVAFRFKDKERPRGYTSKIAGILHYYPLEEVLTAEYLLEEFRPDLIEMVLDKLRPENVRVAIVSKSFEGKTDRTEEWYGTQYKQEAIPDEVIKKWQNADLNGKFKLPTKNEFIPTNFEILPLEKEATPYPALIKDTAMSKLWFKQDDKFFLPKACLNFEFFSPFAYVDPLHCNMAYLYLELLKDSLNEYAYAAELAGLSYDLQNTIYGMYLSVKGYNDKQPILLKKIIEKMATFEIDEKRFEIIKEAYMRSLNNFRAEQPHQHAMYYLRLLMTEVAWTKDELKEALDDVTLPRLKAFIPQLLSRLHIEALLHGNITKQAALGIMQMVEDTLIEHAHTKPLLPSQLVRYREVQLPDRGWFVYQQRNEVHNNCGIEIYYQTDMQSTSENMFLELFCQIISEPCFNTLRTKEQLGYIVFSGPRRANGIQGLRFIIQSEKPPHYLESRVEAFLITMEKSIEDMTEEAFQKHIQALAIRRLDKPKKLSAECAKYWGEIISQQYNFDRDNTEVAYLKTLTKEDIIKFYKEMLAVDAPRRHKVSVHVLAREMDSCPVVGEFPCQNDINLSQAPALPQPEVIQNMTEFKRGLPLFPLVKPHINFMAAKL

Insulin-degrading enzyme [18] = target: T5, Insulin-degrading enzyme; experiment: activators of recombinant IDE enzyme, dose response, counter-screen for IDE activator project, biochemical, fluorescence polarization (AID 588681)
ORF 73 = target: T6, ORF 73 (Human herpesvirus 8, UniProt O40947); experiment: inhibitors of C-LANA binding to LBS DNA, dose response, biochemical, fluorescence polarization, cherry-picked samples (AID 504725); parameters: species or system Human gammaherpesvirus 8;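 further: fluorescence polarization of a labeled DNA duplex reporting LANA DNA binding; potency is for inhibitors that block LANA binding to the DNA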
T6 sequence (O40947 whole entry): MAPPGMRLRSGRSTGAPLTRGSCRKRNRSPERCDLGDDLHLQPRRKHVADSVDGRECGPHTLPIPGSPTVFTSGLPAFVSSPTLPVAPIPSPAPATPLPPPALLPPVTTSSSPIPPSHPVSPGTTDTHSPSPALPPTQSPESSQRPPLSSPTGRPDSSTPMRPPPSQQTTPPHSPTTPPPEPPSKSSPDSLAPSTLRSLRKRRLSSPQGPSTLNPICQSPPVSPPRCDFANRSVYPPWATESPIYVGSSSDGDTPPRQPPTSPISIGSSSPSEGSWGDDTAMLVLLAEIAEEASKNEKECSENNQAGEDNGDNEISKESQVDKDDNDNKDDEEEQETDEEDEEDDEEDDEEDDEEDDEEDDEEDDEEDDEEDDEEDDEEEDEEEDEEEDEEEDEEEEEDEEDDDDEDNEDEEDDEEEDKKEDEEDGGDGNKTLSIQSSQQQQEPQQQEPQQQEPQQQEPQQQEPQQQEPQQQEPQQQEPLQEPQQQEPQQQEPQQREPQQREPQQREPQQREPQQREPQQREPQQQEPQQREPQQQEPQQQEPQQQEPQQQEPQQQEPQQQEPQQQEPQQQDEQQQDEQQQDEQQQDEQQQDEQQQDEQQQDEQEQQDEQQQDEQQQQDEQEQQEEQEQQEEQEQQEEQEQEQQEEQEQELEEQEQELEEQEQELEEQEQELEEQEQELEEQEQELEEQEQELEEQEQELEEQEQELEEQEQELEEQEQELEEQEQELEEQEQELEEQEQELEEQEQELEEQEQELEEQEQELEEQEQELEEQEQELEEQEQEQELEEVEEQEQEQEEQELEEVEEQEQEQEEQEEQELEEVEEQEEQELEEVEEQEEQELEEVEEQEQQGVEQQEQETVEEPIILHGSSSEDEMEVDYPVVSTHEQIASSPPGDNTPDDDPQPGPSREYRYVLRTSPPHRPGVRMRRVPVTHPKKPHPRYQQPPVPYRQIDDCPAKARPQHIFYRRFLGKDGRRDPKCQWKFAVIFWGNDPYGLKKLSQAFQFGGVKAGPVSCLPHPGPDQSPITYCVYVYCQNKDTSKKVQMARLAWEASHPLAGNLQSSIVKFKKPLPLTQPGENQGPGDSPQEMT

Paired box protein Pax-8, sequence (Q06710 whole entry): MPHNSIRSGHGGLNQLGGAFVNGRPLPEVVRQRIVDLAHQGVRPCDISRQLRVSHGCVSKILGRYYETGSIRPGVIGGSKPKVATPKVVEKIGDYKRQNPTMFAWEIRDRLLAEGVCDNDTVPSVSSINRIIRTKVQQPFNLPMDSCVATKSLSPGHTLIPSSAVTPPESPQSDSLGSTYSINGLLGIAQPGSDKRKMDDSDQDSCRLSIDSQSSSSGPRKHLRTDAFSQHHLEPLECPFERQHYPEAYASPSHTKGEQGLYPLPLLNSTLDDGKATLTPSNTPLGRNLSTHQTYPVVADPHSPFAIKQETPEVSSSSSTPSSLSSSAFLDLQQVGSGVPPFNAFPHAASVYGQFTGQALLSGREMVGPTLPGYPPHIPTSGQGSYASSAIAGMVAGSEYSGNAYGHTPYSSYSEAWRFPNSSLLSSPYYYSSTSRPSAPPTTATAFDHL
Protein Wnt-3a, sequence (P27467 whole entry): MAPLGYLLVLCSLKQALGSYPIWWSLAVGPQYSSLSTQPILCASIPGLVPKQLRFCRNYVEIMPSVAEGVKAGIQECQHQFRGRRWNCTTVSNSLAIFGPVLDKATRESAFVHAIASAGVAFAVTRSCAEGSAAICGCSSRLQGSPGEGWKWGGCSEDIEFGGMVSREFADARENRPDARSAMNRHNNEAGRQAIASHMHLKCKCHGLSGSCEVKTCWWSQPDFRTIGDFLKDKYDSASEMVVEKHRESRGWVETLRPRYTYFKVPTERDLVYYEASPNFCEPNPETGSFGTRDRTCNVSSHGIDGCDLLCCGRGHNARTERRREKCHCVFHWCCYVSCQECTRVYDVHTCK
SWI/SNF-related matrix-associated actin-dependent regulator of chromatin subfamily A member 2, sequence (P51531 whole entry): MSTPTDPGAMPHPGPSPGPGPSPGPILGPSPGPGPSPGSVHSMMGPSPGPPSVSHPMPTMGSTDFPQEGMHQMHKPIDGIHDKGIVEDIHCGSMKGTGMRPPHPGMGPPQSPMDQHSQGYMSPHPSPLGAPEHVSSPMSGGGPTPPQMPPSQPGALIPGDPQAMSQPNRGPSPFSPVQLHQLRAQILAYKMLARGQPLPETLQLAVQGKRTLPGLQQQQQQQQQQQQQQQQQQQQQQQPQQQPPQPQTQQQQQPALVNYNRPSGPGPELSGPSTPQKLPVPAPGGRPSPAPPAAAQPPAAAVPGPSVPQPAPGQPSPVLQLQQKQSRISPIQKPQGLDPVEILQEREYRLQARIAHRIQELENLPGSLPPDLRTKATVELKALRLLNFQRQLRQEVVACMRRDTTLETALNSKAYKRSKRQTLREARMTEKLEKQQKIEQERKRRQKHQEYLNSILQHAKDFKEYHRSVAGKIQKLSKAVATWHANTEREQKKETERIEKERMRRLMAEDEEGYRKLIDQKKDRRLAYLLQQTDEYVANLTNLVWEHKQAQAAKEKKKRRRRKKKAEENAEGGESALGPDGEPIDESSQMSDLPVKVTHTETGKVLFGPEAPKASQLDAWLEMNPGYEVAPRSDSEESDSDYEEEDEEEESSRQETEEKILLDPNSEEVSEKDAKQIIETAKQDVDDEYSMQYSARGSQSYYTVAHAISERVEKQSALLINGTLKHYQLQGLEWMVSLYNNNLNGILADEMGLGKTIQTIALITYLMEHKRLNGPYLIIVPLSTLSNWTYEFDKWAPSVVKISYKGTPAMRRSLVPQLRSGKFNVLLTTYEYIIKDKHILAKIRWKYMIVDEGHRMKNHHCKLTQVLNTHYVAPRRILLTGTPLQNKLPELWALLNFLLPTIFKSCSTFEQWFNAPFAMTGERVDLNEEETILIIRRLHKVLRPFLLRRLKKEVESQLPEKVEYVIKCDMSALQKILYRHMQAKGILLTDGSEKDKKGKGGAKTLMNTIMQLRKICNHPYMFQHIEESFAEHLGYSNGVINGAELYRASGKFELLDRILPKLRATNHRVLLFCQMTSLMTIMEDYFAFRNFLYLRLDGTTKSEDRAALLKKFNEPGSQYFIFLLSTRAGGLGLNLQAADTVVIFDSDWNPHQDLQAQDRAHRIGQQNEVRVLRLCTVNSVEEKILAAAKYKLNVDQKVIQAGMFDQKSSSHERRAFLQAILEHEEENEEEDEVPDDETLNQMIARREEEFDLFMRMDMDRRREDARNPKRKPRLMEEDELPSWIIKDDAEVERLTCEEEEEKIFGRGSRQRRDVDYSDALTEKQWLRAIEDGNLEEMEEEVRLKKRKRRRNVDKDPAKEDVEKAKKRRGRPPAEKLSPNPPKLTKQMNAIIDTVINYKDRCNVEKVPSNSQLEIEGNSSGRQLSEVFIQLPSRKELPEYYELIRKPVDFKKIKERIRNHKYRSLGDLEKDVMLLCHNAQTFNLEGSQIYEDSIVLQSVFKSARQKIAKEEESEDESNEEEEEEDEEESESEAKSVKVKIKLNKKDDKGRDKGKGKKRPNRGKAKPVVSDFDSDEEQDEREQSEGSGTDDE
Beta-lactamase (Salmonella choleraesuis (strain SC-B67), UniProt Q5J463), sequence (Q5J463 whole entry): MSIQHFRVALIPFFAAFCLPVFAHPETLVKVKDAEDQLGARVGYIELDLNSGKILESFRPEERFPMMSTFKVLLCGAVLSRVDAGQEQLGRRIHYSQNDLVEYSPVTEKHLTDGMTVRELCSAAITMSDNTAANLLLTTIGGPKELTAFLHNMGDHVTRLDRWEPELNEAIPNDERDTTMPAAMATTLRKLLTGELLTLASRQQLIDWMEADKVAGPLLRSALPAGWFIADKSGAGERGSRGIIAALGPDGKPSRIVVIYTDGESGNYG
Beta-lactamase (Pseudomonas aeruginosa, UniProt Q79MP6), sequence (Q79MP6 whole entry): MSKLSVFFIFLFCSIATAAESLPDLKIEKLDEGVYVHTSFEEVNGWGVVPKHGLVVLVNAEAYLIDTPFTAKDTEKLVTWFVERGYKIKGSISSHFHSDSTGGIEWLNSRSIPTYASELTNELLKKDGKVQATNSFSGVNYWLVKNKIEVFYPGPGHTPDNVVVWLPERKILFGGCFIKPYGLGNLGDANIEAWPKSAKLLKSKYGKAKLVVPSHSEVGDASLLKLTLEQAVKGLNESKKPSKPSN
Mu-type opioid receptor, sequence (P35372 whole entry): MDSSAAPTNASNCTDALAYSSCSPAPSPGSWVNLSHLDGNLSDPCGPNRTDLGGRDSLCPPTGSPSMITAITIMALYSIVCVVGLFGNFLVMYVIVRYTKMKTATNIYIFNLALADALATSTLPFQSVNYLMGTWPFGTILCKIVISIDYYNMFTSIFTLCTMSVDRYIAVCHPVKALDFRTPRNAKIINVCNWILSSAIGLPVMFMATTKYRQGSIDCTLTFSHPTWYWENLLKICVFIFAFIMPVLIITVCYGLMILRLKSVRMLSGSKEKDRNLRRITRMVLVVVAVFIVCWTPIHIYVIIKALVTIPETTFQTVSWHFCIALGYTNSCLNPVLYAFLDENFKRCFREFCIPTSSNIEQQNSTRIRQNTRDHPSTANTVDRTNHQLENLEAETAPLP
5-hydroxytryptamine receptor 2A, sequence (P35363 whole entry): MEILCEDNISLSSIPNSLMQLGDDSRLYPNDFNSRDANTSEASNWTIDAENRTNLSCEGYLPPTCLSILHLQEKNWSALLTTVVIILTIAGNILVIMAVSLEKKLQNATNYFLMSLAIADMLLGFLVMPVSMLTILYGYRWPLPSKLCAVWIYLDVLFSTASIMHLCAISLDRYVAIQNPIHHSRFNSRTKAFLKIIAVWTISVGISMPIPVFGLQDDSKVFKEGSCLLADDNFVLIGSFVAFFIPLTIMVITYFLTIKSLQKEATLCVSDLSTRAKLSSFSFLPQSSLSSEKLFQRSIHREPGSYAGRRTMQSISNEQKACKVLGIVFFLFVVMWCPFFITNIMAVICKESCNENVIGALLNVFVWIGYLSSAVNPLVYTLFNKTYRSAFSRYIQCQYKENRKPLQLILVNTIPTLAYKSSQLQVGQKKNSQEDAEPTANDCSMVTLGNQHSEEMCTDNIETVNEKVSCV

Compound: CCOCCOc1cc(NCc2ccccc2)c2ncn(C(C)C)c2c1
- IC50 (Caspase-3): 45.5 µM (active)
- IC50 [1]: 9.3 µM (active)
- AC50 (Caspase-6): 9.77 µM (active)
- IC50 [2]: 8.07 µM (active)

Compound: CCCc1cc(C(N)=O)c(NC(=O)c2cc(C)on2)s1
- AbsAC35 (Plasmodium falciparum): 70.04 µM

Compound: CCOC(=O)C1(Cc2ccc(Cl)cc2)CCN(C(C)CCn2cccn2)CC1 (stereo unspecified)
- EC50 [3]: 52.2 µM (inactive)
- EC50 (Mu-type opioid receptor): 92.5 µM (inactive)

Compound: Cc1noc(C)c1S(=O)(=O)Nc1ccc2c(c1)C(=O)N([C@H](C)CO)C[C@@H](C)[C@@H](CN(C)Cc1ccc(C(F)(F)F)cc1)OCCCC[C@H](C)O2
- AC50 [4]: 46.4 µM (active)
- AC50 (Paired box protein Pax-8): 8.19 µM (active)
- AC50 [5]: 28 µM (active)
- AbsAC35 [6]: 47.16 µM
- AC50 [7]: 47.1 µM (active)

Compound: C[C@@H]1CN([C@H](C)CO)C(=O)c2cc(NC(=O)Nc3ccc(F)cc3)ccc2O[C@@H](C)CCCCO[C@H]1CN(C)Cc1ccc(C(F)(F)F)cc1
- AC50 (Paired box protein Pax-8): 4.13 µM (active)
- AC50 [5]: 15.8 µM (active)
- AC50 [8]: 37.9 µM (active)

Compound: COCC(=O)Nc1ccc2c(c1)C(=O)N(C)[C@@H]1CC[C@H](CC(=O)NCc3ccccc3Cl)O[C@H]1CO2
- AC50 [9]: > 52 µM (inactive)

Compound: CCCCN(C)c1cc(NC(=O)c2ccccc2)ncn1
- IC50 (Protein Wnt-3a): > 21.8 µM (inactive)

Compound: Nc1ccc(S(=O)(=O)Nc2cnc3c(Cl)cccc3n2)cc1 [CHLORSULFAQUINOXALINE]
- IC50 (cells): > 67.5 µM (inactive)
- EC50 [10]: > 91.2 µM (inactive)
- IC50 [11]: > 67.5 µM (inactive)
- GI50 (P388/ADR): 128 µM (inactive)
- EC50 [12]: > 91.2 µM (inactive)
- GI50 (SN12K1): 117 µM (inactive)
- GI50 (P388): 87.1 µM (inactive)

Compound: CC(=O)Oc1ccc2c(c1)Oc1cc(OC(C)=O)ccc1C21OC(=O)c2ccccc21 [FLUORESCEIN DIACETATE]
- IC50 (Beta-lactamase [13]): > 59.6 µM (inactive)
- IC50 (HEK293 [14]): > 89.2 µM (inactive)
- IC50 (Beta-lactamase [15]): > 59.6 µM (inactive)
- EC50 (HEK293 [16]): > 54.7 µM (inactive)
- EC50 (Insulin-degrading enzyme [17]): > 54.7 µM (inactive)
- EC50 (Insulin-degrading enzyme [18]): > 54.7 µM (inactive)
- AC50 (ORF 73): 0.042 µM (active)
